Experimental data reported in patent US8192962B2, “Processes for detecting toxic substances” (Daikin Industries, Ltd., priority 2001, dated 2012).

Tested on: Stress protein genes
Assay: DNA chip mRNA expression in yeast, stress protein genes (Table 6)
Assay type: cell-based, Saccharomyces cerevisiae S288C
How it was run: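 S. cerevisiae S288C grown at 25° C in YPD were exposed in log phase for two hours to one toxic chemical at a growth-inhibiting, non-lethal concentration; untreated cells served as control. Poly(A) mRNA was reverse-transcribed with Cy3/Cy5-dUTP and hybridized to a whole-genome yeast DNA chip at 65° C for over 12 hours; values are fluorescence ratios versus untreated.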

S=C([S-])NCCNC(=S)[S-].[Zn+2] [(11), zinc N,N′-ethylenebis(dithiocarbamate)]
The level of expressed mRNA in the presence of chemical substance/The level of expressed mRNA in the absence of chemical substance (yeast gene YAL005C): 1.0 | The level of expressed mRNA in the presence of chemical substance/The level of expressed mRNA in the absence of chemical substance (yeast gene YAL015C): 1.4 | The level of expressed mRNA in the presence of chemical substance/The level of expressed mRNA in the absence of chemical substance (yeast gene YBL075C): 1.6 | The level of expressed mRNA in the presence of chemical substance/The level of expressed mRNA in the absence of chemical substance (yeast gene YBL093C): 1.3 | The level of expressed mRNA in the presence of chemical substance/The level of expressed mRNA in the absence of chemical substance (yeast gene YBR044C): 1.1 | The level of expressed mRNA in the presence of chemical substance/The level of expressed mRNA in the absence of chemical substance (yeast gene YBR054W): 1.8 | The level of expressed mRNA in the presence of chemical substance/The level of expressed mRNA in the absence of chemical substance (yeast gene YBR067C): 3.1 | The level of expressed mRNA in the presence of chemical substance/The level of expressed mRNA in the absence of chemical substance (yeast gene YBR072W): 6.3 | The level of expressed mRNA in the presence of chemical substance/The level of expressed mRNA in the absence of chemical substance (yeast gene YBR126C): 1.1 | The level of expressed mRNA in the presence of chemical substance/The level of expressed mRNA in the absence of chemical substance (yeast gene YBR169C): 2.2 | The level of expressed mRNA in the presence of chemical substance/The level of expressed mRNA in the absence of chemical substance (yeast gene YCL035C): 2.1 | The level of expressed mRNA in the presence of chemical substance/The level of expressed mRNA in the absence of chemical substance (yeast gene YCR021C): 0.6 | The level of expressed mRNA in the presence of chemical substance/The level of expressed mRNA in the absence of chemical substance (yeast gene YCR060W): 1.2 | The level of expressed mRNA in the presence of chemical substance/The level of expressed mRNA in the absence of chemical substance (yeast gene YCR083W): 1.8 | The level of expressed mRNA in the presence of chemical substance/The level of expressed mRNA in the absence of chemical substance (yeast gene YDL022W): 2.8 | The level of expressed mRNA in the presence of chemical substance/The level of expressed mRNA in the absence of chemical substance (yeast gene YDL025C): 1.5 | The level of expressed mRNA in the presence of chemical substance/The level of expressed mRNA in the absence of chemical substance (yeast gene YDR033W): 0.7 | The level of expressed mRNA in the presence of chemical substance/The level of expressed mRNA in the absence of chemical substance (yeast gene YDR077W): 6.8 | The level of expressed mRNA in the presence of chemical substance/The level of expressed mRNA in the absence of chemical substance (yeast gene YDR098C): 1.4 | The level of expressed mRNA in the presence of chemical substance/The level of expressed mRNA in the absence of chemical substance (yeast gene YDR155C): 3.8 | The level of expressed mRNA in the presence of chemical substance/The level of expressed mRNA in the absence of chemical substance (yeast gene YDR258C): 1.7 | The level of expressed mRNA in the presence of chemical substance/The level of expressed mRNA in the absence of chemical substance (yeast gene YDR293C): 1.1 | The level of expressed mRNA in the presence of chemical substance/The level of expressed mRNA in the absence of chemical substance (yeast gene YDR436W): 2.0 | The level of expressed mRNA in the presence of chemical substance/The level of expressed mRNA in the absence of chemical substance (yeast gene YDR513W): 2.0 | The level of expressed mRNA in the presence of chemical substance/The level of expressed mRNA in the absence of chemical substance (yeast gene YDR519W): 1.2 | The level of expressed mRNA in the presence of chemical substance/The level of expressed mRNA in the absence of chemical substance (yeast gene YEL030W): 1.7 | The level of expressed mRNA in the presence of chemical substance/The level of expressed mRNA in the absence of chemical substance (yeast gene YEL039C): 1.7 | The level of expressed mRNA in the presence of chemical substance/The level of expressed mRNA in the absence of chemical substance (yeast gene YER042W): 1.8 | The level of expressed mRNA in the presence of chemical substance/The level of expressed mRNA in the absence of chemical substance (yeast gene YER057C): 1.8 | The level of expressed mRNA in the presence of chemical substance/The level of expressed mRNA in the absence of chemical substance (yeast gene YER103W): 1.8 | The level of expressed mRNA in the presence of chemical substance/The level of expressed mRNA in the absence of chemical substance (yeast gene YER125W): 1.0 | The level of expressed mRNA in the presence of chemical substance/The level of expressed mRNA in the absence of chemical substance (yeast gene YFL014W): 5.0 | The level of expressed mRNA in the presence of chemical substance/The level of expressed mRNA in the absence of chemical substance (yeast gene YFL016C): 1.2 | The level of expressed mRNA in the presence of chemical substance/The level of expressed mRNA in the absence of chemical substance (yeast gene YFL020C): 1.2 | The level of expressed mRNA in the presence of chemical substance/The level of expressed mRNA in the absence of chemical substance (yeast gene YFR052W): 0.9 | The level of expressed mRNA in the presence of chemical substance/The level of expressed mRNA in the absence of chemical substance (yeast gene YGL073W): 0.8 | The level of expressed mRNA in the presence of chemical substance/The level of expressed mRNA in the absence of chemical substance (yeast gene YGL115W): 1.0 | The level of expressed mRNA in the presence of chemical substance/The level of expressed mRNA in the absence of chemical substance (yeast gene YGL181W): 1.2 | The level of expressed mRNA in the presence of chemical substance/The level of expressed mRNA in the absence of chemical substance (yeast gene YGR088W): 3.9 | The level of expressed mRNA in the presence of chemical substance/The level of expressed mRNA in the absence of chemical substance (yeast gene YHL028W): 0.7 | The level of expressed mRNA in the presence of chemical substance/The level of expressed mRNA in the absence of chemical substance (yeast gene YHL046C): 0.4 | The level of expressed mRNA in the presence of chemical substance/The level of expressed mRNA in the absence of chemical substance (yeast gene YHR030C): 1.5 | The level of expressed mRNA in the presence of chemical substance/The level of expressed mRNA in the absence of chemical substance (yeast gene YHR057C): 1.6 | The level of expressed mRNA in the presence of chemical substance/The level of expressed mRNA in the absence of chemical substance (yeast gene YHR104W): 2.6 | The level of expressed mRNA in the presence of chemical substance/The level of expressed mRNA in the absence of chemical substance (yeast gene YIL011W): 2.5 | The level of expressed mRNA in the presence of chemical substance/The level of expressed mRNA in the absence of chemical substance (yeast gene YIL033C): 1.8 | The level of expressed mRNA in the presence of chemical substance/The level of expressed mRNA in the absence of chemical substance (yeast gene YIR037W): 3.0 | The level of expressed mRNA in the presence of chemical substance/The level of expressed mRNA in the absence of chemical substance (yeast gene YIR038C): 3.4 | The level of expressed mRNA in the presence of chemical substance/The level of expressed mRNA in the absence of chemical substance (yeast gene YJL128C): 0.6 | The level of expressed mRNA in the presence of chemical substance/The level of expressed mRNA in the absence of chemical substance (yeast gene YJL158C): 1.9 | The level of expressed mRNA in the presence of chemical substance/The level of expressed mRNA in the absence of chemical substance (yeast gene YJL159W): 1.2 | The level of expressed mRNA in the presence of chemical substance/The level of expressed mRNA in the absence of chemical substance (yeast gene YJL165C): 1.7 | The level of expressed mRNA in the presence of chemical substance/The level of expressed mRNA in the absence of chemical substance (yeast gene YJR045C): 1.4 | The level of expressed mRNA in the presence of chemical substance/The level of expressed mRNA in the absence of chemical substance (yeast gene YJR090C): 0.4 | The level of expressed mRNA in the presence of chemical substance/The level of expressed mRNA in the absence of chemical substance (yeast gene YKL161C): 3.1 | The level of expressed mRNA in the presence of chemical substance/The level of expressed mRNA in the absence of chemical substance (yeast gene YKL163W): 1.3 | The level of expressed mRNA in the presence of chemical substance/The level of expressed mRNA in the absence of chemical substance (yeast gene YKL164C): 1.0 | The level of expressed mRNA in the presence of chemical substance/The level of expressed mRNA in the absence of chemical substance (yeast gene YKL210W): 1.4 | The level of expressed mRNA in the presence of chemical substance/The level of expressed mRNA in the absence of chemical substance (yeast gene YKR053C): 0.5 | The level of expressed mRNA in the presence of chemical substance/The level of expressed mRNA in the absence of chemical substance (yeast gene YLL024C): 1.6 | The level of expressed mRNA in the presence of chemical substance/The level of expressed mRNA in the absence of chemical substance (yeast gene YLL026W): 1.7 | The level of expressed mRNA in the presence of chemical substance/The level of expressed mRNA in the absence of chemical substance (yeast gene YLL039C): 1.1 | The level of expressed mRNA in the presence of chemical substance/The level of expressed mRNA in the absence of chemical substance (yeast gene YLL060C): 14.1 | The level of expressed mRNA in the presence of chemical substance/The level of expressed mRNA in the absence of chemical substance (yeast gene YLR006C): 1.5 | The level of expressed mRNA in the presence of chemical substance/The level of expressed mRNA in the absence of chemical substance (yeast gene YLR109W): 1.5 | The level of expressed mRNA in the presence of chemical substance/The level of expressed mRNA in the absence of chemical substance (yeast gene YLR259C): 3.0 | The level of expressed mRNA in the presence of chemical substance/The level of expressed mRNA in the absence of chemical substance (yeast gene YML007W): 1.3 | The level of expressed mRNA in the presence of chemical substance/The level of expressed mRNA in the absence of chemical substance (yeast gene YML070W): 1.5 | The level of expressed mRNA in the presence of chemical substance/The level of expressed mRNA in the absence of chemical substance (yeast gene YMR021C): 0.9 | The level of expressed mRNA in the presence of chemical substance/The level of expressed mRNA in the absence of chemical substance (yeast gene YMR173W): 3.2 | The level of expressed mRNA in the presence of chemical substance/The level of expressed mRNA in the absence of chemical substance (yeast gene YMR186W): 1.1 | The level of expressed mRNA in the presence of chemical substance/The level of expressed mRNA in the absence of chemical substance (yeast gene YNL064C): 0.9 | The level of expressed mRNA in the presence of chemical substance/The level of expressed mRNA in the absence of chemical substance (yeast gene YNL160W): 5.4 | The level of expressed mRNA in the presence of chemical substance/The level of expressed mRNA in the absence of chemical substance (yeast gene YNL241C): 3.0 | The level of expressed mRNA in the presence of chemical substance/The level of expressed mRNA in the absence of chemical substance (yeast gene YNR076W): 1.4 | The level of expressed mRNA in the presence of chemical substance/The level of expressed mRNA in the absence of chemical substance (yeast gene YOL064C): 1.0 | The level of expressed mRNA in the presence of chemical substance/The level of expressed mRNA in the absence of chemical substance (yeast gene YOL161C): 1.5 | The level of expressed mRNA in the presence of chemical substance/The level of expressed mRNA in the absence of chemical substance (yeast gene YOR008C): 1.0 | The level of expressed mRNA in the presence of chemical substance/The level of expressed mRNA in the absence of chemical substance (yeast gene YOR009W): 1.4 | The level of expressed mRNA in the presence of chemical substance/The level of expressed mRNA in the absence of chemical substance (yeast gene YOR010C): 1.2 | The level of expressed mRNA in the presence of chemical substance/The level of expressed mRNA in the absence of chemical substance (yeast gene YOR027W): 1.3 | The level of expressed mRNA in the presence of chemical substance/The level of expressed mRNA in the absence of chemical substance (yeast gene YOR208W): 1.2 | The level of expressed mRNA in the presence of chemical substance/The level of expressed mRNA in the absence of chemical substance (yeast gene YPL059W): 1.6 | The level of expressed mRNA in the presence of chemical substance/The level of expressed mRNA in the absence of chemical substance (yeast gene YPL106C): 1.3 | The level of expressed mRNA in the presence of chemical substance/The level of expressed mRNA in the absence of chemical substance (yeast gene YPL140C): 0.8 | The level of expressed mRNA in the presence of chemical substance/The level of expressed mRNA in the absence of chemical substance (yeast gene YPL194W): 0.9 | The level of expressed mRNA in the presence of chemical substance/The level of expressed mRNA in the absence of chemical substance (yeast gene YPL223C): 1.8 | The level of expressed mRNA in the presence of chemical substance/The level of expressed mRNA in the absence of chemical substance (yeast gene YPL240C): 1.0 | The level of expressed mRNA in the presence of chemical substance/The level of expressed mRNA in the absence of chemical substance (yeast gene YPR005C): 0.4 | The level of expressed mRNA in the presence of chemical substance/The level of expressed mRNA in the absence of chemical substance (yeast gene YPR026W): 1.6
